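The compound was tested at five concentrations on cells cultured in 96-well plates, with a 48-hour exposure period. At the TGI there is no net growth.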
Key:
Assay in all cases: NCI tumour cell line growth inhibition, 48 h
[1] = tested on: NCI-H23 lung
[2] = tested on: SK-MEL-2 melanoma
[3] = tested on: SNB-75 CNS
[4] = tested on: K-562 leukemia
[5] = tested on: MDA-N
[6] = tested on: OVCAR-4 ovarian
[7] = tested on: LOX IMVI melanoma
[8] = tested on: UACC-257 melanoma
[9] = tested on: MDA-MB-435
[10] = tested on: SF-268 CNS
[11] = tested on: UACC-62 melanoma
[12] = tested on: MOLT-4 leukemia
[13] = tested on: NCI/ADR-RES ovarian
[14] = tested on: SK-MEL-5 melanoma
[15] = tested on: NCI-H460 lung
[16] = tested on: NCI-H522 lung
[17] = tested on: SW-620 colon
[18] = tested on: SN12C renal
[19] = tested on: U251 CNS
[20] = tested on: SR leukemia
[21] = tested on: COLO 205 colon
[22] = tested on: SNB-19 CNS
[23] = tested on: ACHN renal
[24] = tested on: HCT-116 colon
[25] = tested on: KM12 colon
[26] = tested on: MCF7 breast
[27] = tested on: IGROV1 ovarian
[28] = tested on: CAKI-1 renal
[29] = tested on: PC-3 prostate
[30] = tested on: 786-0 renal
[31] = tested on: HOP-62 NSCLC
[32] = tested on: M14 melanoma
[33] = tested on: HCC-2998 colon
[34] = tested on: OVCAR-8 ovarian
[35] = tested on: T-47D breast
[36] = tested on: HS 578T breast
[37] = tested on: HOP-92 NSCLC
[38] = tested on: EKVX NSCLC
[39] = tested on: A549 NSCLC
[40] = tested on: BT-549 breast
[41] = tested on: A498 renal
[42] = tested on: HT29 colon
[43] = tested on: SF-539 CNS
[44] = tested on: MALME-3M melanoma
[45] = tested on: RPMI-8226 leukemia
[46] = tested on: OVCAR-5 ovarian
[47] = tested on: RXF 393 renal
[48] = tested on: TK-10 renal
[49] = tested on: SK-MEL-28 melanoma
[50] = tested on: MDA-MB-231 breast
[51] = tested on: SK-OV-3 ovarian
[52] = tested on: HCT-15 colon
[53] = tested on: DU-145 prostate
[54] = tested on: SF-295 CNS
[55] = tested on: NCI-H226 lung
[56] = tested on: OVCAR-3 ovarian
[57] = tested on: UO-31 renal
[58] = tested on: CCRF-CEM leukemia
[59] = tested on: HL-60(TB) leukemia

SMILES: c1ccc(COc2ccc(C[P+](c3ccccc3)(c3ccccc3)c3ccccc3)cc2)cc1
- TGI [1]: 1.36 µM
- TGI [2]: 0.727 µM
- TGI [3]: 2.99 µM
- TGI [4]: 2.17 µM
- TGI [5]: 5.86 µM
- TGI [6]: 1.84 µM
- TGI [7]: 2.56 µM
- TGI [8]: 11.6 µM
- TGI [9]: 1.7 µM
- TGI [10]: 14.2 µM
- TGI [11]: 1.74 µM
- TGI [12]: 1.94 µM
- TGI [13]: 49.1 µM
- TGI [14]: 0.284 µM
- TGI [15]: 3.81 µM
- TGI [16]: 1.61 µM
- TGI [17]: 10.2 µM
- TGI [18]: 5.03 µM
- TGI [19]: 11.8 µM
- TGI [20]: > 24.2 µM
- TGI [21]: 3.26 µM
- TGI [22]: 14.8 µM
- TGI [23]: 6.39 µM
- TGI [24]: 1.68 µM
- TGI [25]: 1.66 µM
- TGI [26]: 1.52 µM
- TGI [27]: 12.3 µM
- TGI [28]: 20.2 µM
- TGI [29]: 3.07 µM
- TGI [30]: 3.57 µM
- TGI [31]: 3.37 µM
- TGI [32]: 4.97 µM
- TGI [33]: 4.81 µM
- TGI [34]: 2.18 µM
- TGI [35]: 0.839 µM
- TGI [36]: 3.19 µM
- TGI [37]: 0.585 µM
- TGI [38]: 3.04 µM
- TGI [39]: 11.3 µM
- TGI [40]: 3.26 µM
- TGI [41]: 5.51 µM
- TGI [42]: 2.02 µM
- TGI [43]: 3.5 µM
- TGI [44]: 1.82 µM
- TGI [45]: 0.201 µM
- TGI [46]: 2.2 µM
- TGI [47]: 0.361 µM
- TGI [48]: 1.66 µM
- TGI [49]: 5.04 µM
- TGI [50]: 4.86 µM
- TGI [51]: 3.42 µM
- TGI [52]: 13.6 µM
- TGI [53]: 12.9 µM
- TGI [54]: 2.97 µM
- TGI [55]: 22.4 µM
- TGI [56]: 11 µM
- TGI [57]: 11 µM
- TGI [58]: 7.28 µM

SMILES: C[N+]1(C)C2Cc3ccccc3C1Cc1ccccc12
- TGI [1]: > 100 µM
- TGI [2]: > 100 µM
- TGI [5]: > 100 µM
- TGI [6]: > 100 µM
- TGI [7]: > 100 µM
- TGI [8]: > 100 µM
- TGI [9]: > 100 µM
- TGI [10]: > 100 µM
- TGI [11]: > 100 µM
- TGI [12]: > 100 µM
- TGI [13]: > 100 µM
- TGI [14]: > 100 µM
- TGI [15]: > 100 µM
- TGI [16]: > 100 µM
- TGI [17]: > 100 µM
- TGI [18]: > 100 µM
- TGI [19]: > 100 µM
- TGI [21]: > 100 µM
- TGI [22]: > 100 µM
- TGI [23]: > 100 µM
- TGI [24]: > 100 µM
- TGI [25]: > 100 µM
- TGI [26]: > 100 µM
- TGI [27]: > 100 µM
- TGI [29]: > 100 µM
- TGI [30]: > 100 µM
- TGI [31]: > 100 µM
- TGI [32]: > 100 µM
- TGI [33]: > 100 µM
- TGI [34]: > 100 µM
- TGI [35]: > 100 µM
- TGI [36]: > 100 µM
- TGI [37]: > 100 µM
- TGI [38]: > 100 µM
- TGI [39]: > 100 µM
- TGI [40]: > 100 µM
- TGI [41]: > 100 µM
- TGI [42]: > 100 µM
- TGI [43]: > 100 µM
- TGI [44]: > 100 µM
- TGI [45]: > 100 µM
- TGI [46]: > 100 µM
- TGI [47]: > 100 µM
- TGI [48]: > 100 µM
- TGI [49]: > 100 µM
- TGI [50]: > 100 µM
- TGI [59]: > 100 µM
- TGI [51]: > 100 µM
- TGI [52]: > 100 µM
- TGI [53]: > 100 µM
- TGI [54]: > 100 µM
- TGI [55]: > 100 µM
- TGI [56]: > 100 µM
- TGI [57]: > 100 µM
- TGI [58]: > 100 µM

SMILES: O=C(C=P(c1ccccc1)(c1ccccc1)c1ccccc1)C12CC3CC(CC(C3)C1)C2
- TGI [1]: 33.2 µM
- TGI [2]: 29.5 µM
- TGI [3]: 33.3 µM
- TGI [4]: 25.2 µM
- TGI [5]: 29.2 µM
- TGI [6]: 52.9 µM
- TGI [7]: 41.5 µM
- TGI [8]: 32.8 µM
- TGI [9]: 26.6 µM
- TGI [10]: 41.6 µM
- TGI [11]: 29.1 µM
- TGI [13]: 37.6 µM
- TGI [14]: 28.8 µM
- TGI [15]: 31.3 µM
- TGI [16]: 20.6 µM
- TGI [17]: 34.9 µM
- TGI [18]: 32.3 µM
- TGI [19]: 34 µM
- TGI [20]: > 100 µM
- TGI [21]: 28.7 µM
- TGI [22]: 27 µM
- TGI [23]: 29.7 µM
- TGI [24]: 29.4 µM
- TGI [25]: 32 µM
- TGI [26]: 35.8 µM
- TGI [27]: 30.8 µM
- TGI [28]: 33.6 µM
- TGI [29]: 24 µM
- TGI [30]: 33.4 µM
- TGI [31]: 32.3 µM
- TGI [32]: 32.7 µM
- TGI [33]: 32.1 µM
- TGI [34]: 34.5 µM
- TGI [35]: 38.2 µM
- TGI [36]: 37.6 µM
- TGI [37]: 43.2 µM
- TGI [38]: 29.3 µM
- TGI [39]: 36 µM
- TGI [40]: 33.8 µM
- TGI [41]: 39.9 µM
- TGI [42]: 23.2 µM
- TGI [43]: 37 µM
- TGI [44]: 38 µM
- TGI [45]: 20.6 µM
- TGI [46]: 32.7 µM
- TGI [48]: 24.4 µM
- TGI [49]: 31.8 µM
- TGI [50]: 32.9 µM
- TGI [59]: 27.1 µM
- TGI [52]: 26.7 µM
- TGI [53]: 39.3 µM
- TGI [56]: 28.5 µM
- TGI [57]: 27.7 µM
- TGI [58]: 32.7 µM
